The text below walks through data of patent US20230373989A1, “N-PHENYLAMINOCARBONYL PYRIDINO-, PYRIMIDINO AND BENZO-TROPANES AS MODULATORS OF GPR65” (PATHIOS THERAPEUTICS LIMITED, priority 2020, published 2023).

The term IC50 denotes the concentration that gives 50% inhibition.

T1 sequence (Q8IYL9 whole entry): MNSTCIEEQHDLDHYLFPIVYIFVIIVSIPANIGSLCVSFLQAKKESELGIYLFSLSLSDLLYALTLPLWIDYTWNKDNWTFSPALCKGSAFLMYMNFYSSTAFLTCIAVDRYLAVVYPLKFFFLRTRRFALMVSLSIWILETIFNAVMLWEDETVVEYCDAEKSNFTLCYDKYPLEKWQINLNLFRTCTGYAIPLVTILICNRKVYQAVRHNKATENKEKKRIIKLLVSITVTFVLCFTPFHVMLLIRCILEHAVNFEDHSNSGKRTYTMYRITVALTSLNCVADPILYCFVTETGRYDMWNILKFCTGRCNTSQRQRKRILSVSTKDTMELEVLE

The first experiment addresses T1, human recombinant GPR65 (Homo sapiens, UniProt Q8IYL9).
T1 construct: host or cells: 1321N1 human astrocytoma cells (1321N1-hrGPR65)
Nature of the experiment: Human GPR65 cAMP HTRF antagonist assay. Format: cell-based.
Conditions: not given
The gist of the method:
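1321N1 astrocytoma cells stably expressing GPR65 were preincubated with compound for 30 min at room temperature in KRH pH 7.6 with 1 mM IBMX and 200 μM EDTA. They were then stimulated at assay pH 7.2 for 30 min, with controls at pH 7.9. cAMP was read by HTRF (665/620 nm), normalised to controls and fitted by 4-parameter logistic to give IC50.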
In general terms: TR-FRET usually uses a lanthanide donor and a delayed reading to cut background.
Take `O=C(Nc1ccc(Oc2ccccc2)cc1)N1[C@H]2CC[C@@H]1c1ccnc(F)c1C2` [Compound 185, (5R,8S)-1-Fluoro-N-(4-phenoxyphenyl)-6,7,8,9-tetrahydro-5H-5,8-epiminocyclohepta[c]pyridine-10-carboxamide]: the IC50 was less than 500 nM.

Take `Cc1ncoc1-c1ccc(NC(=O)N2[C@H]3CC[C@@H]2c2ccnc(F)c2C3)cc1` [Compound 187, (5R,8S)-1-Fluoro-N-(4-(4-methyloxazol-5-yl)phenyl)-6,7,8,9-tetrahydro-5H-5,8-epiminocyclohepta[c]pyridine-10-carboxamide]: the IC50 is 500 to 5000 nM.

As for `O=C(Nc1cc(Cl)c(Cl)cc1F)N1[C@H]2CC[C@@H]1c1c(F)cncc1C2` [Compound 190, (5R,8S)-N-(4,5-Dichloro-2-fluorophenyl)-4-fluoro-6,7,8,9-tetrahydro-5H-5,8-epiminocyclohepta[c]pyridine-10-carboxamide], the IC50 is less than 500 nM.

Regarding `O=C(Nc1ccc(-c2ccccc2)cc1)N1[C@H]2CC[C@@H]1c1c[nH]c(=O)cc1C2` [Compound 191, (6S,9R)-N-([1,1′-Biphenyl]-4-yl)-3-oxo-3,5,6,7,8,9-hexahydro-2H-6,9-epiminocyclohepta[c]pyridine-10-carboxamide], the IC50 was less than 500 nM.

Regarding `O=C(Nc1ccc(-c2ccccc2)cc1)N1[C@H]2CC[C@@H]1c1ccnc(F)c1C2` [Compound 192, (5R,8S)-N-([1,1′-Biphenyl]-4-yl)-1-fluoro-6,7,8,9-tetrahydro-5H-5,8-epiminocyclohepta[c]pyridine-10-carboxamide], the IC50 is less than 500 nM.

In the case of `O=C(Nc1cc(Cl)c(C(F)(F)F)cc1F)N1[C@H]2CC[C@@H]1c1ccc(F)nc1C2` [Compound 196, (5R,8S)-N-(5-Chloro-2-fluoro-4-(trifluoromethyl)phenyl)-2-fluoro-6,7,8,9-tetrahydro-5H-5,8-epiminocyclohepta[b]pyridine-10-carboxamide], the IC50 is less than 500 nM.

For the compound `O=C(Nc1cc(Cl)c(C(F)(F)F)cc1F)N1[C@@H]2CC[C@H]1c1ccc(F)nc1C2` [Compound 197, (5S,8R)-N-(5-Chloro-2-fluoro-4-(trifluoromethyl)phenyl)-2-fluoro-6,7,8,9-tetrahydro-5H-5,8-epiminocyclohepta[b]pyridine-10-carboxamide], the IC50 is 500 to 5000 nM.

Consider `O=C(Nc1ccc(Cl)c(Cl)c1)N1[C@@H]2CC[C@H]1c1cnc(F)cc1C2` [Compound 198, (6R,9S)-N-(3,4-dichlorophenyl)-3-fluoro-6,7,8,9-tetrahydro-5H-6,9-epiminocyclohepta[c]pyridine-10-carboxamide], for which the IC50 was in the range of 500 to 5000 nM.

In the case of `N#Cc1cc(NC(=O)N2[C@H]3CC[C@@H]2c2ccnc(F)c2C3)ccc1Cl` [Compound 199, (5R,8S)-N-(4-Chloro-3-cyanophenyl)-1-fluoro-6,7,8,9-tetrahydro-5H-5,8-epiminocyclohepta[c]pyridine-10-carboxamide], the IC50 was less than 500 nM.

Staying with this experiment, now noted: 1321N1-hrGPR65 cells, assay pH 7.2, cAMP HTRF; read-out: hGPR65 IC50 (activity class).
For `O=C(Nc1ccc(-c2cscn2)cc1)N1[C@H]2CC[C@@H]1c1ccnc(F)c1C2` [Compound 186, (5R,8S)-1-Fluoro-N-(4-(thiazol-4-yl)phenyl)-6,7,8,9-tetrahydro-5H-5,8-epiminocyclohepta[c]pyridine-10-carboxamide], the IC50 lay within 500 to 5000 nM.

Regarding `O=C(Nc1ccc(-c2cnco2)cc1)N1[C@H]2CC[C@@H]1c1ccnc(F)c1C2` [Compound 188, (5R,8S)-1-Fluoro-N-(4-(oxazol-5-yl)phenyl)-6,7,8,9-tetrahydro-5H-5,8-epiminocyclohepta[c]pyridine-10-carboxamide], the IC50 lay in the range of 500 to 5000 nM.

As to `O=C(Nc1cc(Cl)c(Cl)cc1F)N1[C@H]2CC[C@@H]1c1ccnc(C(F)(F)F)c1C2` [Compound 200, (5R,8S)-N-(4,5-dichloro-2-fluorophenyl)-1-(trifluoromethyl)-6,7,8,9-tetrahydro-5H-5,8-epiminocyclohepta[c]pyridine-10-carboxamide], the IC50 lay within 500 to 5000 nM.
